# US6844364B2, “Stabilization of retinoid compounds” (Johnson & Johnson Consumer Companies, Inc., priority 2001, dated 2005)
# Format: physicochemical
# Protocol: Finsolv® TN is a C12-15 alkyl benzoate from Fintex, Inc. (Elmwood Park, N.J.) Miglyol® 812 from Huls AG (Marl, Germany) and Neobee® 1053 from Stepan Company (Northfield, Ill.) are each a caprylic/capric triglyceride.
# The general procedure to prepare the above formulations is as follows. A 500 mg of Compound 1 was weighed and transferred into an 800 ml glass beaker containing 500 g of one of the above carriers. The formulation was then stirred with a paddle mixer (stirrer type RZR50 from Caframo in Wiarton, Ontario, Canada) at 100 RPM setting until the compound was completely dissolved/dispersed in the carrier.
# About 20 g each of the resulting formulations were then packed into 24 clear glass scintillation vials of 20 ml volume (Wheaton Disposable Scintillation Vials from Wheaton Scientific in Milleville, N.J.) and labeled. Groups of eight of such vials were then stored at 4° C., RT (22° C.) and/or 40° C. for stability studies.
# The samples of the formulations at each of the above three temperatures were then periodically analyzed for the chemical stability of Compound 1. The compound was assayed using high performance liquid chromatographic (HPLC) system. The results of this analysis is set forth in Table 2 setting forth the amount of Compound 1 remaining in the formulation following a certain number of days at specified temperatures.
smiles,measurement,value
CCCCCc1cc2c(cc1C(=O)Oc1ccc(C(=O)O)cn1)C(C)(C)CCC2(C)C [Compound I],Stabilization of the compound in topical liquid or semisolid pharmaceutical formulations,"None of these formulations, however, were capable of sufficiently stabilizing the compound"
